Experimental data published in patent US8129417B2, “Substituted octahydrocyclopenta[C]pyrrol-4-amines as calcium channel blockers” (Abbott Laboratories, priority 2008, dated 2012).

target: human Cav2.2 (Homo sapiens, UniProt Q00975); assay: Assessment of calcium channel activity using FLIPR (Ca2+ influx in IMR32 cells); format: cell-based; conditions: 60 minute pre-incubation with compound, 2 μM nifedipine, depolarized with 80 mM KCl
Method in brief: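 IC50 came from sigmoidal non-linear regression of percent inhibition, relative to uninhibited activity, across compound concentrations. Calcium influx was measured by FLIPR in IMR32 cells plated at 1-1.2×10^5 cells/well and cultured 48 h at 37 °C.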

human Cav2.2, sequence (Q00975 whole entry): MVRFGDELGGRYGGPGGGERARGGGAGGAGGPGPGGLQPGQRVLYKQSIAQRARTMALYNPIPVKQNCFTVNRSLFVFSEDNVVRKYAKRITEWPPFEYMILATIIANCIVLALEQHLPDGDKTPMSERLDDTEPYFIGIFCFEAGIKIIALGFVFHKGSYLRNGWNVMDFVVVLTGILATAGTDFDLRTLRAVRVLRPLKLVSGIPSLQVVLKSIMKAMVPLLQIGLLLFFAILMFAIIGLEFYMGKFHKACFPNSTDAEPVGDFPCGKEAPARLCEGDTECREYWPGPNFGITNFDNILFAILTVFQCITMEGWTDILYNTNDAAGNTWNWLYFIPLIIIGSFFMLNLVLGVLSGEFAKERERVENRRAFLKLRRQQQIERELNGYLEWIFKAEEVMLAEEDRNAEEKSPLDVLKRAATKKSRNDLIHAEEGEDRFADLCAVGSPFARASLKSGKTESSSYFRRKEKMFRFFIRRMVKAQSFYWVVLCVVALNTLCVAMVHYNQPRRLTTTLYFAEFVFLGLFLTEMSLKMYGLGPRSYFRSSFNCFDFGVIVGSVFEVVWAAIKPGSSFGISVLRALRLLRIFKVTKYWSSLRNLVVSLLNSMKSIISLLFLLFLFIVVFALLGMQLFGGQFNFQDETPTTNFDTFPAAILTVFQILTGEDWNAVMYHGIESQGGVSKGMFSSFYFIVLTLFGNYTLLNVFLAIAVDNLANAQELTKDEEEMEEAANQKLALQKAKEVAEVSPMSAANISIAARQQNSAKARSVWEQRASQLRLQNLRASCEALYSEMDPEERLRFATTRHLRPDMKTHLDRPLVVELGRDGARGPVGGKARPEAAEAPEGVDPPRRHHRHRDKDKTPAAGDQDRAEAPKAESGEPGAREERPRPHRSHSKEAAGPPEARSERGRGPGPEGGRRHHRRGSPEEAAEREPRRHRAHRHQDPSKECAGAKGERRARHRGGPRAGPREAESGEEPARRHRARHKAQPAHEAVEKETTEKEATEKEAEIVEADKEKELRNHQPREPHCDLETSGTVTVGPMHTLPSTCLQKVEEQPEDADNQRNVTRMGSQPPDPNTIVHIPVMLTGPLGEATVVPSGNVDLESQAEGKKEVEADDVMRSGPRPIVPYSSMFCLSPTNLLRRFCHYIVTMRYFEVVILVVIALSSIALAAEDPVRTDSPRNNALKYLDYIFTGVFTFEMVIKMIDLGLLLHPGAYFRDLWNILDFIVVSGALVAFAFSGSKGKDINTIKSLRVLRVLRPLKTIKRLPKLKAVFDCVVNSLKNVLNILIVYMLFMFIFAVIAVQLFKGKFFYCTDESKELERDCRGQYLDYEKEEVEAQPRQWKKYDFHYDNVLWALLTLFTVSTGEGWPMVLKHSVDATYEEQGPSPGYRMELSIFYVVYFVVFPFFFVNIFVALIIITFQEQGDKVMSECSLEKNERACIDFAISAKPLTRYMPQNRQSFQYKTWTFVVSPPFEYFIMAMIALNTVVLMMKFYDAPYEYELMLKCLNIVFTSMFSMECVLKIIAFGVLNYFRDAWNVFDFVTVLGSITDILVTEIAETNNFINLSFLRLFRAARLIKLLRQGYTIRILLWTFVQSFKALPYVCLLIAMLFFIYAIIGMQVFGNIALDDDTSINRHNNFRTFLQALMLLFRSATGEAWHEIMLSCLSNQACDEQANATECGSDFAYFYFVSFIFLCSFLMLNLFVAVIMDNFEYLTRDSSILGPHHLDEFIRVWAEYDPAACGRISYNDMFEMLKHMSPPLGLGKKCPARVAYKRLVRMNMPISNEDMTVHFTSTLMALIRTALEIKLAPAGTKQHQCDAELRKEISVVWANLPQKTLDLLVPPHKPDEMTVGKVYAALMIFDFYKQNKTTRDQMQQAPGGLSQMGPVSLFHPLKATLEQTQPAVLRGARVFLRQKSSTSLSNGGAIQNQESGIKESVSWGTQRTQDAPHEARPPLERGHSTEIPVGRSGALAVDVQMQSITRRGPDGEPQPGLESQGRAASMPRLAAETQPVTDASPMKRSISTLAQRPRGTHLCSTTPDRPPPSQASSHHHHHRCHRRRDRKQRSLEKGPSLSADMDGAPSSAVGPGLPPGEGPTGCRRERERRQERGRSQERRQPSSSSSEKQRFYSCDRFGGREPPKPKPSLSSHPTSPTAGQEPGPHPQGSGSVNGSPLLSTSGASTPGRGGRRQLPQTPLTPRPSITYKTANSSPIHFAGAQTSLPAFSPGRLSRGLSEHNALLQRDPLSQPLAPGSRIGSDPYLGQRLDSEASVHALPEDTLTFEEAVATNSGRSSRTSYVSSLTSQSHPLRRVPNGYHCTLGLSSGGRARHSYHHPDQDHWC
human Cav2.2, sequence (P54289 25-946 partner limits assumed): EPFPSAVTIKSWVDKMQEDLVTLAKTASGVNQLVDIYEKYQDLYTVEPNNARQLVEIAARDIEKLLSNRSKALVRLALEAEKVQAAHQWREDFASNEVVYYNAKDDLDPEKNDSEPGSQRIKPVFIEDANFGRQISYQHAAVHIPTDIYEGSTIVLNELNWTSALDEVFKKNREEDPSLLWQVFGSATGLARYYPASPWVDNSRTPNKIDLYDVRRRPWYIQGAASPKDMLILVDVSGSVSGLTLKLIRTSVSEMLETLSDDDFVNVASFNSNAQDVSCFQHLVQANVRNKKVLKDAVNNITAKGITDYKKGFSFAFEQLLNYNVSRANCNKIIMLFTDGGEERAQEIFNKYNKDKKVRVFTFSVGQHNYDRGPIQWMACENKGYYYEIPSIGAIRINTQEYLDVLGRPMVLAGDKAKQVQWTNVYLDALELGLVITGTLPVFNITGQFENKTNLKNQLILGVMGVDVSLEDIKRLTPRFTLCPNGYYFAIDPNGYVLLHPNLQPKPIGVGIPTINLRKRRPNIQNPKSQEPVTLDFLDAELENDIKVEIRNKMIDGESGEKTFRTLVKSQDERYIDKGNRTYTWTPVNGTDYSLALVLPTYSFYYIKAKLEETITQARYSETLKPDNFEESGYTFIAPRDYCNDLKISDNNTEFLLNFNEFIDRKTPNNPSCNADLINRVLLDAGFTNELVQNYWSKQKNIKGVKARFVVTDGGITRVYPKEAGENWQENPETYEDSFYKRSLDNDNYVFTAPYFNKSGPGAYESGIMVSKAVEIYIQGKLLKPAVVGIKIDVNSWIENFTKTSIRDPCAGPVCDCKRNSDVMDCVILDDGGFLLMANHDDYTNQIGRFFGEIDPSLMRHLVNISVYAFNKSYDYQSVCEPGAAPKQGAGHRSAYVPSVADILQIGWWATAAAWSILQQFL
human Cav2.2, sequence (P54289 947-1103 partner limits assumed): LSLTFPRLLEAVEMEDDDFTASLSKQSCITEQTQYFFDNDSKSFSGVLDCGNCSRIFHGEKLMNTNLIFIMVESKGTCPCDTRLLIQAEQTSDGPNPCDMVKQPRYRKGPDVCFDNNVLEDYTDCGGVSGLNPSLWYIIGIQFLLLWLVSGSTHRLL
human Cav2.2, sequence (P54284 whole entry partner): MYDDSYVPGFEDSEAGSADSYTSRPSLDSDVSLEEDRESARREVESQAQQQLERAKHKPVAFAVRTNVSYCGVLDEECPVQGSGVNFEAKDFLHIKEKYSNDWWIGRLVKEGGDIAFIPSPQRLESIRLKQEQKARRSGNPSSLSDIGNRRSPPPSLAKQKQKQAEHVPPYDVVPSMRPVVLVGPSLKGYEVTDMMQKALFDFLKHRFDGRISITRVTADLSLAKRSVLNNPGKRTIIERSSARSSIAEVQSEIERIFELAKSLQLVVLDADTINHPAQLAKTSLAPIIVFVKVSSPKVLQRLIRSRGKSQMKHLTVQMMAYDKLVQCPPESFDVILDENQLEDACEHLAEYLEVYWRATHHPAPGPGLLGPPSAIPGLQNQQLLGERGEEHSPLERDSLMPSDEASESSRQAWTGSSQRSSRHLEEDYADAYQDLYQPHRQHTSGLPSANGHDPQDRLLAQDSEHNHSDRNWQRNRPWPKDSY

IC50	SMILES
1620 nM	CN[C@@H](CC(C)C)C(=O)N1C[C@H]2CC[C@H](NC(=O)C(c3ccc(F)cc3)c3ccc(F)cc3)[C@H]2C1 [Example 459, 2,2-bis(4-fluorophenyl)-N-[(3aR,4S,6aS)-2-(N-methyl-L-leucyl)octahydrocyclopenta[c]pyrrol-4-yl]acetamide]
2690 nM	CCC[C@H](NC)C(=O)N1C[C@H]2CC[C@H](NC(=O)C(c3ccc(F)cc3)c3ccc(F)cc3)[C@H]2C1 [Example 460, 2,2-bis(4-fluorophenyl)-N-[(3aR,4S,6aS)-2-(N-methyl-L-norvalyl)octahydrocyclopenta[c]pyrrol-4-yl]acetamide]
1880 nM	CN[C@@H](CC(C)(C)C)C(=O)N1C[C@H]2CC[C@H](NC(=O)C(c3ccc(F)cc3)c3ccc(F)cc3)[C@H]2C1 [Example 461, N-[(3aR,4S,6aS)-2-(N,4-dimethyl-L-leucyl)octahydrocyclopenta[e]pyrrol-4-yl]-2,2-bis(4-fluorophenyl)acetamide]
2330 nM	FC(F)(F)c1cccc(CN2C[C@H]3CC[C@H](NC(c4ccccc4)c4ccccc4)[C@H]3C2)c1 [Example 466, (3aR,4S,6aS)—N-benzhydryl-2-[3-(trifluoromethyl)benzyl]octahydrocyclopenta[c]pyrrol-4-amine]
2240 nM	CN[C@@H](CC(C)C)C(=O)N[C@@H]1CC[C@H]2CN(C(c3ccccc3)c3ccccc3)C[C@H]21 [Example 469, N^1-[(3aS,4R,6aR)-2-benzhydryloctahydrocyclopenta[c]pyrrol-4-yl]-N^2-methyl-L-leucinamide]
1030 nM	CCCN[C@@H](CC(C)(C)C)C(=O)N[C@H]1CC[C@@H]2CN(S(=O)(=O)c3ccc(C(F)(F)F)cc3)C[C@@H]21 [Example 470, 4-methyl-N^2-propyl-N^1-((3aR,4S,6aS)-2-{[4-(trifluoromethyl)phenyl]sulfonyl}octahydrocyclopenta[c]pyrrol-4-yl)-L-leucinamide]
650 nM	CC(C)(C)C[C@H](NCC1CC1)C(=O)N[C@H]1CC[C@@H]2CN(S(=O)(=O)c3ccc(C(F)(F)F)cc3)C[C@@H]21 [Example 471, N^2-(cyclopropylmethyl)-4-methyl-N^1-((3aR,4S,6aS)-2-{[4-(trifluoromethyl)phenyl]sulfonyl}octahydrocyclopenta[c]pyrrol-4-yl)-L-leucinamide]
1270 nM	CC(C)(C)C[C@H](NCC1CCC1)C(=O)N[C@H]1CC[C@@H]2CN(S(=O)(=O)c3ccc(C(F)(F)F)cc3)C[C@@H]21 [Example 472, N^2-(cyclobutylmethyl)-4-methyl-N^1-((3aR,4S,6aS)-2-{[4-(trifluoromethyl)phenyl]sulfonyl}octahydrocyclopenta[c]pyrrol-4-yl)-L-leucinamide]
2660 nM	CC(C)CN[C@@H](CC(C)(C)C)C(=O)N[C@H]1CC[C@@H]2CN(S(=O)(=O)c3ccc(C(F)(F)F)cc3)C[C@@H]21 [Example 473, N^2-isobutyl-4-methyl-N^1-((3aR,4S,6aS)-2-{[4-(trifluoromethyl)phenyl]sulfonyl}octahydrocyclopenta[c]pyrrol-4-yl)-L-leucinamide]
1740 nM	CC(C)(C)C[C@H](NCC1CCCC1)C(=O)N[C@H]1CC[C@@H]2CN(S(=O)(=O)c3ccc(C(F)(F)F)cc3)C[C@@H]21 [Example 474, N^2-(cyclopentylmethyl)-4-methyl-N^1-((3aR,4S,6aS)-2-{[4-(trifluoromethyl)phenyl]sulfonyl}octahydrocyclopenta[c]pyrrol-4-yl)-L-leucinamide]
1840 nM	CC(C)(C)C[C@H](NCC1CCCCC1)C(=O)N[C@H]1CC[C@@H]2CN(S(=O)(=O)c3ccc(C(F)(F)F)cc3)C[C@@H]21 [Example 475, N^2-(cyclohexylmethyl)-4-methyl-N^1-((3aR,4S,6aS)-2-{[4-(trifluoromethyl)phenyl]sulfonyl}octahydrocyclopenta[c]pyrrol-4-yl)-L-leucinamide]
